Patent US4212797A, “Synthetic pentapeptide having opiate agonist activity” (Beckman Instruments, Inc., priority 1976, dated 1980)

Columns and labels:
[1] = system: opiate receptor (stereospecific naloxone binding); assay: Inhibition of stereospecific naloxone binding (Pert and Snyder technique); settings: for ID50, concentration required to inhibit 50% of stereospecific naloxone binding: sodium 100 mM
Experimental: B., and Snyder, S., Proceedings of the National Academy of Sciences, Vol. 70, pp. 2243-2247 (1973). The potency is measured as ID50, defined as the concentration required to inhibit 50% of stereospecific naloxone binding. The concentration of sodium was 100 mM. The effectiveness is inversely related to the ID50 value.

[2] = system: opiate receptor sites; settings: Hughes et al, Nature 258, 577-579 (1975); cited from earlier work

For `CSCC[C@H](NC(=O)[C@H](Cc1ccccc1)NC(=O)CNC(=O)CNC(=O)[C@@H](N)Cc1ccc(O)cc1)C(=O)O` [Enkephalin sequence one, H-Tyr-Gly-Gly-Phe-Met-OH], the “ID50, concentration required to inhibit 50% of stereospecific naloxone binding” value [1] is given as 0.4 and the “Opiate agonist potency, comparison in words” value [2] is given as “more potent than sequence two”.
In the case of `CC(C)C[C@H](NC(=O)[C@H](Cc1ccccc1)NC(=O)CNC(=O)CNC(=O)[C@@H](N)Cc1ccc(O)cc1)C(=O)O` [Enkephalin sequence two, H-Tyr-Gly-Gly-Phe-Leu-OH], the “ID50, concentration required to inhibit 50% of stereospecific naloxone binding” value [1] was 1.4.
For `CSCC[C@H](NC(=O)[C@H](Cc1ccccc1)NC(=O)CNC(=O)CNC(=O)[C@@H](N)Cc1ccc(O)cc1)C(N)=O` [Subject Pentapeptide, H-Tyr-Gly-Gly-Phe-Met-NH2], the “Potency relative to the more potent sequence of enkephalin” value ([1]; from ID50 values of Table 1) was “twice as potent as the more potent sequence of enkephalin” and the “ID50, concentration required to inhibit 50% of stereospecific naloxone binding” value [1] was 0.2.
